US20230080811A1 (priority 2020, published 2023)
Counter-ions that a name gives are not always drawn.

Experiment: In vivo pharmacokinetic investigation, subcutaneous injection, plasma by LC-MS
Parameters: species or system rat
Conditions: in rats, inferred from PK and duration of efficacy
Procedure: The obtained pharmaceutical composition was subcutaneously injected into male SD rats. Blood was collected at predetermined time points. The content of the drug in plasma was determined by LC-MS method, and the pharmacokinetics in vivo was investigated.
Experimental animals: male SD rats with a weight of 200-300 g, source: […] OF MATERIA MEDICA, CHINESE ACADEMY OF SCIENCES;
Experimental grouping: Rats were randomly divided into groups according to the following table, with 6 rats in each group;
Experimental procedure: Rats were subcutaneously injected, and at a predetermined time point, 0.5 ml of blood was collected from the orbit of the rat and placed in a centrifuge tube with heparin sodium anticoagulation. The tube was centrifuged at 3000 rpm for 10 min to separate the plasma, and the plasma concentration was detected by LC-MS method.
The pharmacokinetic (PK) parameters of the compositions were calculated, and the results were statistically analyzed by t-test.

CCCN1CCCC[C@H]1C(=O)Nc1c(C)cccc1C [ropivacaine hydrochloride]
onset concentration: about 20 ng/ml
